Several values for one entry are separate records, joined by “and”; a condition that tells them apart may be missing. Equal entries are not always repeated. Bounds are passed on as bounds.

One data set has as its system HIV-1 (RF) in MT-2 cells. The data set can be described thus: microbe, parasite or virus in culture. It counts as cell-based. As to conditions: Human immunodeficiency virus 1, MT2, 48 h, Table 2d; class symbols; read-out: IC90. A digest of the protocol: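 Read-out: gag and pol viral RNA captured by 5′-biotinylated oligonucleotides on streptavidin-coated wells, detected with alkaline phosphatase-linked reporter oligonucleotides, calibrated against BH10 in vitro transcripts. Virus stocks (RF, MN, IIIB) come from H9 cultures; MT-2 host cells kept in RPMI 1640, 5% FCS.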
Usually IC90 stands for the point of the concentration-response curve where the effect stands at 90%. Take `O=C1NC(Cc2ccccc2)C(O)C(O)C(Cc2ccccc2)N1Cc1ccc(CO)cc1` (stereo not drawn) [Example 11N]: the IC90 was less than 10 µg/mL.

For the compound `CSc1cccc(CN2C(=O)N(Cc3cccc(SC)c3)C(Cc3ccccc3)C(O)C(O)C2Cc2ccccc2)c1` (stereo not drawn) [Example 12R], the IC90 was less than 10 µg/mL.

Take `O=C1N(CCCCCO)C(Cc2ccccc2)C(O)C(O)C(Cc2ccccc2)N1Cc1ccc2ccccc2c1` (stereo not drawn) [Example 15VH]: the IC90 was less than 10 µg/mL.

Still in this data set, the particulars now being: Human immunodeficiency virus 1, MT2, Table 2i; read-out: IC90.
Consider `O=C1N(CC2CC2)C(Cc2ccc([N+](=O)[O-])cc2)C(O)C(O)C(Cc2ccccc2[N+](=O)[O-])N1CC1CC1` (stereo not drawn) [Example 20A], for which the IC90 is less than 10 µg/mL.

`O=C1N(CC2CC2)C(Cc2ccc([N+](=O)[O-])cc2)C(O)C(O)C(Cc2ccc([N+](=O)[O-])cc2)N1CC1CC1` (stereo not drawn) [Example 20B]: the 90% effect concentration (IC90) is less than 10 µg/mL.

Staying with this data set, now noted: Human immunodeficiency virus 1, MT2, Table 2m; read-out: IC90.
For the compound `O=S1(=O)N(CC2CC2)C(Cc2ccccc2)C(O)C(O)C(Cc2ccccc2)N1CC1CC1` (stereo not drawn) [Example 23F], the IC90 is less than 10 µg/mL.

Staying with this data set, now noted: Human immunodeficiency virus 1, MT2, Table 2q; read-out: IC90.
As to `OC1C(O)C(Cc2ccccc2)N(Cc2ccccc2)C(=S)N(Cc2ccccc2)C1Cc1ccccc1` (stereo not drawn) [Example 27A], the IC90 was less than 10 µg/mL.

`OC1C(O)C(Cc2ccccc2)N(CC2CC2)C(=S)N(CC2CC2)C1Cc1ccccc1` (stereo not drawn) [Example 27B]: the IC90 is less than 10 µg/mL.

In another data set the target is T1, HIV protease (Human immunodeficiency virus type 1 group M subtype B, UniProt P04585).
T1 construct: plasmid containing HIV protease under the control of an inducible T7 promoter; made in house; host or cells: E. coli (inclusion bodies, T7 promoter)
The data set is described as follows: biochemical. Also noted: species or system HIV-1. To be noted: Ki. How it is done:
HIV Protease Inhibition Assay—Spectroscopic Method
Inclusion bodies were solubilized in 8M urea, 50 mM tris pH 8.0. Protease activity was recovered by dilution 20-fold into buffer containing 50 mM sodium acetate pH 5.5, 1 mM EDTA, 10% glycerol and 5% ethylene glycol. Enzyme was used at a final concentration of 1.0-10 ug/ml.
Stock solutions of 10 mM were prepared in DMSO.
All further dilutions were done in DMSO.
`O=C1N(Cc2ccccn2)C(Cc2ccccc2)C(O)C(O)C(Cc2ccccc2)N1Cc1ccccn1` (stereo not drawn) [Example 1AR] came in with a Ki of 10 to 1000 nM.

The data set is the same for the next values; noted with them: Table 1a; read-out: Ki.
In the case of `CC(C)=CCN1C(=O)NC(Cc2ccccc2)C(O)C(O)C1Cc1ccccc1` (stereo not drawn) [Example 1AE], the Ki was less than 10 nM.

For `O=C1N(Cc2ccncc2)C(Cc2ccccc2)C(O)C(O)C(Cc2ccccc2)N1Cc1ccncc1` (stereo not drawn) [Example 1AI], the Ki was 10 to 1000 nM.

`CC(C)CN1C(=O)N(CC(C)C)C(Cc2ccccc2)C(O)C(O)C1Cc1ccccc1` (stereo not drawn) [Example 1AO]: the Ki was in the range of 10 to 1000 nM.

For the compound `O=C1N(CCCc2ccccc2)C(Cc2ccccc2)C(O)C(O)C(Cc2ccccc2)N1CCCc1ccccc1` (stereo not drawn) [Example 1AS], the Ki lay in the range of 10 to 1000 nM.

For `C=CCN1C(=O)N(CC=C(C)C)C(Cc2ccccc2)C(O)C(O)C1Cc1ccccc1` (stereo not drawn) [Example 1AT], the Ki is less than 10 nM.

In the case of `O=C1N(CC=Cc2ccccc2)C(Cc2ccccc2)C(O)C(O)C(Cc2ccccc2)N1CC=Cc1ccccc1` (stereo not drawn) [Example 1AU], the Ki was less than 10 nM.

On to `C=CCN1C(=O)N(CC2CC2)C(Cc2ccccc2)C(O)C(O)C1Cc1ccccc1` (stereo not drawn) [Example 1AW], for which the Ki is less than 10 nM.

For `CN1C(=O)N(Cc2ccccc2)C(Cc2ccccc2)C(O)C(O)C1Cc1ccccc1` (stereo not drawn) [Example 1AY], the Ki lay in the range of 10 to 1000 nM.

As for `CC(C)=CCN1C(=O)N(C)C(Cc2ccccc2)C(O)C(O)C1Cc1ccccc1` (stereo not drawn) [Example 1BD], the Ki lay within 10 to 1000 nM.

Turning to `C=CCN1C(=O)N(CC=C)C(Cc2ccccc2)C(O)C(O)C1Cc1ccccc1` (stereo not drawn) [Example 1D], the Ki was greater than 1000 nM.

For `O=C1NC(Cc2ccccc2)C(O)C(O)C(Cc2ccccc2)N1` (stereo not drawn) [Example 1E], the Ki was greater than 1000 nM.

System in a further data set: not given
Experiment: not given
Conditions: not given
As a reminder, the melting point is the temperature, or range, at which the solid turns liquid. As for `O=C1NC(Cc2ccccc2)C(O)C(O)C(Cc2ccccc2)N1Cc1ccc(CO)cc1` (stereo not drawn) [Example 11N], the melting point was in the range of 112 to 114 °C.

For the compound `CSc1cccc(CN2C(=O)N(Cc3cccc(SC)c3)C(Cc3ccccc3)C(O)C(O)C2Cc2ccccc2)c1` (stereo not drawn) [Example 12R], the melting point is 169 °C and 169.3 °C.

Compound `O=C1N(CCCCCO)C(Cc2ccccc2)C(O)C(O)C(Cc2ccccc2)N1Cc1ccc2ccccc2c1` (stereo not drawn) [Example 15VH] showed a melting point of 84.6 °C.

In turn, `O=C1N(CC2CC2)C(Cc2ccc([N+](=O)[O-])cc2)C(O)C(O)C(Cc2ccccc2[N+](=O)[O-])N1CC1CC1` (stereo not drawn) [Example 20A] registered a melting point of 209.8 °C.

As to `O=C1N(CC2CC2)C(Cc2ccc([N+](=O)[O-])cc2)C(O)C(O)C(Cc2ccc([N+](=O)[O-])cc2)N1CC1CC1` (stereo not drawn) [Example 20B], the melting point was 227.5 °C.

The compound `O=S1(=O)N(CC2CC2)C(Cc2ccccc2)C(O)C(O)C(Cc2ccccc2)N1CC1CC1` (stereo not drawn) [Example 23F] had a melting point of 71 to 72 °C.

Turning to `OC1C(O)C(Cc2ccccc2)N(Cc2ccccc2)C(=S)N(Cc2ccccc2)C1Cc1ccccc1` (stereo not drawn) [Example 27A], the melting point is 92 to 94 °C.

With `OC1C(O)C(Cc2ccccc2)N(CC2CC2)C(=S)N(CC2CC2)C1Cc1ccccc1` (stereo not drawn) [Example 27B], the melting point fell in the range of 84 to 86 °C.

For another data set, the target named is single-chain tethered dimer of HIV protease (Human immunodeficiency virus 1, UniProt P04585). The data set can be described thus: biochemical. As to conditions: read-out: HPLC K1; Table 2d; class symbols. The arrangement: fused on or other part: A second copy of the same protease unit is joined to the first by a short peptide tether, giving one polypeptide. It counts as biochemical.
As to `O=C1NC(Cc2ccccc2)C(O)C(O)C(Cc2ccccc2)N1Cc1ccc(CO)cc1` (stereo not drawn) [Example 11N], the Ki was less than 10 nM.

For `CSc1cccc(CN2C(=O)N(Cc3cccc(SC)c3)C(Cc3ccccc3)C(O)C(O)C2Cc2ccccc2)c1` (stereo not drawn) [Example 12R], the Ki was less than 10 nM.

Take `O=C1N(CCCCCO)C(Cc2ccccc2)C(O)C(O)C(Cc2ccccc2)N1Cc1ccc2ccccc2c1` (stereo not drawn) [Example 15VH]: the Ki is less than 10 nM.

Still in this data set, the particulars now being: read-out: HPLC Ki; Table 2i.
Consider `O=C1N(CC2CC2)C(Cc2ccc([N+](=O)[O-])cc2)C(O)C(O)C(Cc2ccccc2[N+](=O)[O-])N1CC1CC1` (stereo not drawn) [Example 20A], for which the Ki was less than 10 nM.

As for `O=C1N(CC2CC2)C(Cc2ccc([N+](=O)[O-])cc2)C(O)C(O)C(Cc2ccc([N+](=O)[O-])cc2)N1CC1CC1` (stereo not drawn) [Example 20B], the Ki is less than 10 nM.

Staying with this data set, now noted: read-out: HPLC Ki; Table 2m.
Consider `O=S1(=O)N(CC2CC2)C(Cc2ccccc2)C(O)C(O)C(Cc2ccccc2)N1CC1CC1` (stereo not drawn) [Example 23F], for which the Ki was less than 10 nM.

Staying with this data set, now noted: read-out: HPLC Ki; Table 2q.
With `OC1C(O)C(Cc2ccccc2)N(Cc2ccccc2)C(=S)N(Cc2ccccc2)C1Cc1ccccc1` (stereo not drawn) [Example 27A], the Ki is less than 10 nM.

In the case of `OC1C(O)C(Cc2ccccc2)N(CC2CC2)C(=S)N(CC2CC2)C1Cc1ccccc1` (stereo not drawn) [Example 27B], the Ki is less than 10 nM.

For the origin of these results see patent USRE37781E1, “Substituted cyclic carbonyls and derivatives thereof useful as retroviral protease inhibitors” (DuPont Pharmaceuticals Company, priority 1991, dated 2002).
